# Measurements published in a melting point compilation (Tetko et al.; mined from patent text by program, amines drawn as free bases though some values may be those of a salt).
row,melting point,SMILES
1,138 to 147 °C,CCCCCCC(C(=O)Nc1ccccc1O)n1cnc(NC(=O)c2ccccc2S(=O)(=O)O)c1 (stereo unspecified)
2,115 to 118 °C,COC(=O)CC1CCN(C(=O)N2CCC(c3ccc(C#N)cc3)CC2)CC1
3,158 to 160 °C,O=C1CCC2(CC1)CC(=O)c1ccccc1C2
4,216 to 217 °C,COc1c(C(=O)O)n(C)c(=O)c2ccc(Cl)cc12
5,> 270 °C,CCn1c(=O)c2[nH]c(/C=C/c3cc(OC)cc(OC)c3)nc2n(CC)c1=O
6,98 to 104 °C,CC(=O)C(Cc1cc(O)c(O)c([N+](=O)[O-])c1)C(=O)C1CC1 (stereo unspecified)
7,115 to 116 °C,CCNc1cc(C)nc(Oc2c(C)cc(C)cc2C)c1C
8,117 to 119 °C,Cc1ccc(S(=O)(=O)N(Cc2cc(C(C)(C)C)c(O)c(C(C)(C)C)c2)c2cccnc2Cl)cc1
9,291 to 293 °C,CC(C)NC1=NS(=O)(=O)c2c(Cl)cc(Cl)cc2N1
10,99 to 101 °C,CC(C)C(=O)N1CCC(CNc2ccc(Cl)cc2C(=O)Nc2ccc(Cl)cn2)CC1
11,168 to 170 °C,COc1ccc(C(=O)Nc2ccccc2)cc1NCc1cccc(O)c1
12,147 to 149 °C,CCc1c(-c2ccc(OCc3ccccc3)cc2)c2cc(C(C)=O)c3ccc(OCc4ccccc4)c1n32
13,91.5 to 92 °C,CCN(c1ccc(C(=O)c2ccccc2)cc1[N+](=O)[O-])C1CCCCC1
14,136 to 138 °C,COc1ccccc1Oc1c(N)nc(N2CCOCC2)nc1OCCO
15,94.5 to 96.5 °C,O=[N+]([O-])C=Cc1ccsc1
16,161 to 162 °C,O=C(C=Cc1ccco1)c1cnc2sc3c(n12)CCCCC3
17,123 to 125 °C,CNC(=O)N(c1ccc(OC(F)(F)F)cc1)c1nc(OCC(F)(F)F)cc(OCC(F)(F)F)n1
18,120 to 121 °C,CCc1nccn1N=Cc1ccc(N(C)C)cc1
19,95 to 99 °C,CN(C)CCCOc1c(Cl)cc(-c2nnc(CSCCOc3ccccc3)o2)cc1Cl
20,190 to 192 °C,Cn1cc(C(N)=O)c([N+](=O)[O-])n1
21,187 °C,Cc1cc2cc(CN3CCCC3)cnc2cc1NC(=O)c1ccc(-c2ccsc2)cc1
22,63 to 67 °C,COC(=O)C(=COC(F)F)c1ccccc1CBr
23,56 to 57 °C,CCOC(=O)[C@H](CCc1ccccc1)N[C@@H](C)C(=O)N1C(=O)N(Cc2ccccc2)C[C@H]1C(=O)O
24,145 to 147 °C,Cc1oc(-c2ccccc2)nc1CCc1noc2cc(CC(Sc3ccccc3)C(=O)O)ccc12 (stereo unspecified)
25,139 to 140 °C,C=CCNc1nc(NC(C)(C)C)nc2ccc([N+](=O)[O-])cc12

row,melting point,SMILES
1,248 °C,O=C(O[C@@H]1CC[C@@H](c2cccc(F)c2F)Cc2ccc(Cl)nc21)N1CCC(n2c(=O)[nH]c3ncccc32)CC1
2,237 to 239 °C,O=C(NC(Cc1ccc(OCc2ccccc2)cc1)C(=O)O)c1cc2ccc(-c3ccc(Cl)cc3)cc2s1 (stereo unspecified)
3,174 to 175 °C,COc1cc(C)nc(NC(=O)NS(=O)(=O)c2ccccc2CCC(F)(F)F)n1
4,125 to 126 °C,Nc1ccc(C23CC2C(=O)N(CC2CCCCC2)C3=O)cc1 (stereo unspecified)
5,307 to 309 °C,Cc1c2ccncc2c(C)c2c1[nH]c1ccc(O)cc12
6,50 to 52 °C,CCCCOc1cc(=O)n(CCCC)c2ccccc12
7,172 to 174 °C,COc1ccc2c(c1O)CCN(C=O)C2
8,145 to 150 °C,O=C(Cl)N1c2ccccc2C=Cc2ccccc21
9,263 to 264 °C,CC1(C)C(=O)Oc2c(S(C)(=O)=O)cc3cc(S(C)(=O)=O)c(Cn4cncn4)cc3c21
10,64 to 67 °C,OC(CCCC(O)c1ccccc1)c1ccccc1 (stereo unspecified)
11,130 °C,CCCNC(=O)Nc1ccc(-c2cn3c(n2)C(OC2CCN(C)CC2)c2ccccc2CC3)cc1 (stereo unspecified)
12,184 to 186 °C,N#CCCc1cccc(-c2ccc3cnc(Nc4ccc5c(c4)CCC(N4CCOCC4)CC5)nn23)c1 (stereo unspecified)
13,262 °C,Nc1cc(-c2noc(-c3cnn4c(C(F)(F)F)cc(-c5ccc(Cl)c(Cl)c5)nc34)n2)ccn1
14,> 280 °C,CC(=O)Nc1nc(O)c2cc(I)cnc2n1
15,124 to 126 °C,COc1ccc(CC(=O)Nc2cc(Cl)c(Cl)cc2[N+](=O)[O-])cc1
16,156 to 157 °C,CC1=C(C2C=CN(C(=O)OCC(Cl)(Cl)Cl)N=C2)SCC(=O)N1 (stereo unspecified)
17,93 to 98 °C,CCOC(=O)C(C)(C)Oc1ccc(OCCn2c(=O)sc3cc(C(=NOC)c4cccc(Cl)c4)ccc32)cc1
18,72 to 74 °C,O=C(O)CN(CC(=O)O)c1cc(OCCCCCCCCCCCCOc2ccccc2)cc(OCCCCCCCCCCCCOc2ccccc2)c1
19,97 to 100 °C,OC(c1ccccc1)(c1cccc(C(F)(F)F)c1)N1CCCCC1 (stereo unspecified)
20,92 to 94 °C,CSNC(=O)c1c(Cl)cccc1[Si](C)(C)C
21,> 250 °C,N#Cc1c[nH]c2cc(F)c(OCc3ccccc3)cc2c1=O
22,133 to 135 °C,CCN(C)c1nc(-c2ccc(OC)c(OC)c2)nc2sc(C#N)c(C)c12
23,157 to 159 °C,Cc1cccc(C(C)C)c1NC(=O)NCC1(c2ccccc2)CCCC1
24,187 to 189 °C,COc1ccc([N+](=O)[O-])c(C(=O)O)c1OC
25,140 to 141 °C,CNC(=O)N1CC(Oc2cccc(Cl)c2)C1

row,melting point,SMILES
1,134 to 136 °C,COc1ccc(OCc2ccc(OCc3nc(-c4ccccc4)oc3C)cc2)c(CC(=O)O)c1
2,115 to 118 °C,CC1(C)C(=NO)C(=O)C2(C)CC(O)C12 (stereo unspecified)
3,> 300 °C,NNc1cc2ccccc2cc1C(=O)O
4,268 to 269 °C,CNC(=O)c1cc(-n2cnn(Cc3ccc(F)cc3)c2=O)n[nH]1
5,141 to 149 °C,CC(C)(C)C1Cc2cc(N3C[C@H](CO)OC3=O)ccc2N1C(=O)OCc1ccccc1 (stereo partly specified)
6,94 to 96 °C,CN(C)CC1CNc2ccc(Cl)cc2C1 (stereo unspecified)
7,305 to 310 °C,Nc1nc2ccccc2n2cnc(-c3noc(C4CC4)n3)c12
8,212 °C,COc1nc(N)nc(Cl)c1C1=NCCN1
9,101 to 103 °C,NNc1ccc(OCc2ccccc2)cc1
10,111 to 112 °C,OCC1COC(Cn2cncn2)(c2ccc(Oc3ccccc3)cc2)O1 (stereo unspecified)
11,167 °C,CC(C)=CCc1cc(C=CC(=O)c2ccc(O)cc2O)ccc1O
12,166 to 168 °C,N#CC=C1CCc2ccc3ncoc3c21
13,185 to 186 °C,NS(=O)(=O)c1ccc(NC(=O)CNc2ccccc2)c(Cl)c1
14,38 to 40 °C,CCCCCCCCCCCCCCCCCC(=O)N1CCCCc2nc(-c3ccccc3)sc21
15,183 to 185 °C,CN1CCC(c2cnn3c(-c4cccc(NC(=O)c5cccc(C(F)(F)F)c5)c4)ccnc23)CC1
16,226 °C,COc1cc(CN2CCN(c3ccc(C(=O)NC4CC4)cc3Cl)CC2)cc2c1OC(C)C(=O)N2 (stereo unspecified)
17,> 215 °C,COC(=O)c1ccc(Cn2c(=O)c(C)c3sc(C(=O)NCc4ccc(F)cc4)cn3c2=O)cc1
18,132 to 134 °C,CCCOn1c(C)nc(N2CCc3ccccc3CC2)c(C#N)c1=O
19,204 to 205 °C,CN(c1cccc2cc(-c3ncc(CCl)s3)[nH]c12)S(=O)(=O)c1cccs1
20,154 to 156 °C,C=CCNc1nc(C)c(C(=O)c2ccc(Cl)c([N+](=O)[O-])c2)s1
21,200 °C,Cc1ccnc(N2CCN(CCc3c(C)n4c5c(cc(Br)cc35)CCC4)CC2)c1
22,99 to 100 °C,c1ccc(CSc2ncccc2-c2ccccc2)cc1
23,210 to 211 °C,Cc1nc(Cc2ccc(NC(=O)/C=C/c3cnn(C)c3-c3ccc(F)cc3)cc2)sc1C
24,199 to 202 °C,CC(C)(CN)c1ccc2nc(-c3ccncc3)[nH]c2c1
25,260 to 263 °C,CCC(=O)c1c[nH]c2c(OC)cccc2c1=O

row,melting point,SMILES
1,60 to 62 °C,CC(C)Sc1c(C(N)=O)n(C)c2ccc(O)cc12
2,126 °C,CCCCCc1c(C(C)C)nc(C(C)C)c(CO)c1-c1ccccc1O
3,99 °C,CCCCc1ccc(OC)c(-c2csc(NC(=O)c3ccc(C(=O)N4CCC(N5CCC(OC(C)=O)C5)CC4)cc3)n2)c1 (stereo unspecified)
4,126 to 130 °C,C=CC(O)c1cc(O)ccc1[N+](=O)[O-] (stereo unspecified)
5,127 to 128 °C,OCCc1nccn1CCCCc1ccc(OCc2coc(/C=C/c3ccc(Cl)cc3)n2)cc1
6,98 to 100 °C,CC(O)(CCCl)c1ccc(-c2cccc(Cl)c2)cc1 (stereo unspecified)
7,104 to 114 °C,NC1=NC(c2ccc(OC(F)F)cc2)(c2cccc(-c3cccnc3F)c2)C2=NCCCN12 (stereo unspecified)
8,175 to 177 °C,c1cc(-n2ccnc2)cc(-n2cnc3cc(-c4ccco4)ccc32)c1
9,92 °C,O=C(O)Cc1ccc(OCCNC(=O)C2Cc3ccccc3N2S(=O)(=O)c2ccc(-c3cccc(C(F)(F)F)c3)cc2)cc1 (stereo unspecified)
10,108 to 110 °C,CC(=O)Nc1cc(C(C)=O)ccc1OCCCN1CCC(c2noc3cc(F)ccc23)CC1
11,133 to 135 °C,O=C(Nc1cc(Cl)cc(Cl)c1)C(Cl)Cl
12,98 °C,Cc1ccc(-c2cc(Cl)cc3c2NC(CN)CO3)c(C(F)(F)F)c1 (stereo unspecified)
13,78 to 80 °C,COc1cc(OC)c(Br)cc1O
14,179 to 181 °C,Fc1cccc(CNC(=S)N2CCc3c([nH]c4ccccc34)C2c2ccc3c(c2)OCO3)c1 (stereo unspecified)
15,> 300 °C,O=c1[nH]c2ccc3c(c2[nH]c1=O)NCCC3
16,123 to 125 °C,O=C(OCCN1CCCCC1)c1c[nH]c2ccccc12
17,171 to 173 °C,COc1ccc2c(c1)[C@@]1(C(=O)O)CCCC[C@H]1CC2 (relative stereo)
18,98 to 99 °C,CCCCNC(=O)c1cc([N+](=O)[O-])cnc1C
19,71 to 72.5 °C,CC(C)Cc1ccc2nc(Cl)cn2n1
20,39 to 40 °C,Fc1ccc(C=Nc2ccccc2)cc1
21,268 to 270 °C,COc1cc(N)c(Cl)cc1C(=O)NC1CCN(CC2CCN(C(C)C(C)=O)CC2)CC1 (stereo unspecified)
22,192 °C,COc1cc2[nH]nc(CN3CCN(c4ccccc4OC)CC3)c2cc1OC
23,239 to 240 °C,Cc1nc2c(N)nc3ccccc3c2n1CCCNC(=O)C(C)C

row,SMILES,melting point
1,CC(C)=CCN(CC=C(C)C)Cc1noc(-c2ncn3c2[C@@H]2CCN2C(=O)c2ccccc2-3)n1,119 to 122 °C
2,Cc1cc2c(cc1O)C(C)(C)CC2,70 to 71 °C
3,O=[N+]([O-])c1ccc(CO)c([N+](=O)[O-])c1,105 to 110 °C
